Results reported in patent US10385061B2, “Medicarpin, its derivatives, manufacturing method thereof” (PhytoHealth Corporation, priority 2016, dated 2019).
Read-outs that look alike come from different tables or passages of the source.

How the values were obtained:
[1] = system: erythroid progenitor cells; assay: Hemoglobin colorimetric assay of bone marrow cells (erythroid progenitor differentiation); type: cell-based, mouse; conditions: low concentration (0.1 to 10 μg/mL), 96 hours, A610
Experimental: C57BL/6J male mice (6 weeks old) were used in this Example to collect bone marrow cells. The hind legs were of mice were obtained to remove excess flesh from the leg bone and cut off the ends of the bones. The bones were flushed with α-MEM medium using 23-gauge needle to elute bone marrow cells, and then filtrated by No. 53 nylon mesh filter to obtain the bone marrow cells solution.
96-well plates (U-bottom shape) were centrifuged at 1200 rpm (Kubota 6800) at 25° C. for 5 minutes. After centrifugation, the supernatant was removed and the bone marrow cells were mixed equally with 50 μL lysis buffer (0.01% NP-40) for 10 minutes. Then, 150 μL of 500 μM DAF (2,7-Diaminofluorene, Sigma-Aldrich) solution and 6 μL of 30% H2O2 were added and treated with the bone marrow cells for 5 minutes, and absorbance at 610 nm (A610) was determined. Student's t-test were used to compare data.

[2] = system: cisplatin-induced nephropathic mice; assay: Cisplatin-induced nephropathic mice model; type: in vivo
Experimental: C57BL/6J male mice (8 to 10 weeks old) were injected i.p. (Intraperitoneal) with three doses of cisplatin (CDDP) (Sigma-Aldrich), following the scheme of 7, 6 and 7 mg/kg body weight, at 1, 5, 10 day, and the normal group (n=6) was injected with saline. On day 12, serum samples were collected and assayed for blood urea nitrogen content (BUN). Mice with BUN values greater than 100 mg/100 mL were chosen for the experiment. […] The mice were (BUN=80-300 mg/dL) subsequently divided randomly into four cohorts comprising the control and three medicarpin-treated groups, medicarpin 10, 30, 90 mg/kg/day (CDDP+Med 10, CDDP+Med 30, CDDP+Med 90) (n=6 for each group) for an additional 2 weeks. Blood samples from all the mice were collected on day 12. The red blood cell (RBC) numbers were determined from the complete blood cell count using a Sysmex Kx-21 haematology analyser (Sysmex America Inc., Mundelein, Ill., USA), and the serum BUN levels were determined through the urease GLDH method using a commercial kit (DiaSys Diagnostic System GmbH, Frankfurt, Germany). The administration and blood collection schedules were carried out according to the FIG. 4. […] However, the number of RBC in control group without medicarpin treatment was still low. […] The number of WBCs was recovered in the mice after 2 week of medicarpin treatment. […] Similarly, the number of platelet (PLT) also was decreased by cisplatin. […] (FIG. 5D).
One month after treatment of medicarpin, the expression of EPO was increased in liver (FIG. 7A) and kidney (FIG. 7B) of mice.

doxorubicin-induced mice = assay: Treadmill endurance assessment under normoxic or hypoxic conditions; type: in vivo; conditions: 3 weeks administration, normoxic and hypoxic (8% O2) conditions, dose-dependent
Experimental: Before being divided into treatment groups, 8 to 10 week-old C57B1/6J male mice were trained on a treadmill for a maximum of 10 min for each of three consecutive training sessions per day for 3 days. […] On the testing day, each mouse was subjected to three trials on the treadmill at under a normoxic or hypoxic (8% O2) atmosphere. The endurance performance was measured over time until the mice suffered from electric shock over 35 times/min (electric shock system is on the end of the treadmill). The maximum trial length was 60 min and there was a 30-min rest period between each trial. (Table 2)

[3] = system: dox-induced cardiomyopathic mice; conditions: for EF (Ejection fraction) / FS (Fractional shortening) / IVS; d / IVS; s / LVID; d / LVID; s / LVPW; d / LVPW; s: week 3, mean±SEM
Experimental: C57BL/6J male mice (6 to 8 weeks old) were injected intraperitoneally with triple dose of 5, 5, or 8 mg/kg doxorubicin-HCl (Sigma-Aldrich), respectively. In control group, the mice (n=6) were injected intraperitoneally with saline. 1 week after injection, the degree of heart failure was determined by the increase of S-T segment in electrocardiogram, and then the mice were randomly reclassified into the control group (Dox/Ctrl, n=9) and experimental group (Dox+Med) (FIG. 9). In the experimental group, the mice were fed a diet containing 10, 30, or 90 mg/kg/day medicarpin, respectively. Each experiment group consisted of 7 mice. After feedings, the mice were subjected to the rotarod endurance test, echocardiography and electrocardiogram.
The mice from all treatment groups were anaesthetized with isoflurane (0.75-1.5% inhalation); and echocardiographic measurements were taken in M-mode in triplicate for each mouse using an ATL HDI 5000 ultrasound system (Philips Medical Systems, ATL Ultrasound, Bothell, Wash., USA).

Question: For (+)-Medicarpin, which “differentiation of erythroid progenitor cells” value [1] is on record?
Answer: enhanced

Question: What about the BUN levels ([2]; 30 and 90 mg/kg treatment groups) of the same substance?
Answer: significantly recovered

Question: What about the “recovery of anaemia (RBC number)” value ([2]; 30 and 90 mg/kg, day 33) of the same substance?
Answer: almost complete recovery

Question: What about the “white blood cell (WBC) number” value ([2]; 30 and 90 mg/kg, week 3 to 4) of the same substance?
Answer: significant recovery

Question: What about the renal function ([2]; 30 or 90 mg/kg) of the same substance?
Answer: accelerated the recovery

Question: And the “amount of hemoglobin and number of functional RBC” value ([2]; high-middle dose)?
Answer: increased

Question: What about the renal function ([2]; low-dose 10 mg/kg) of the same substance?
Answer: could not improve

Question: And the “HGF expression in liver” value ([2]; one month after treatment)?
Answer: increase

Question: What about the “expression of EPO in liver and kidney” value ([2]; one month after treatment) of the same substance?
Answer: increased

Question: And the “number of platelet (PLT)” value ([2]; vs CDDP/Ctrl group after its recovery from cisplatin)?
Answer: no significant difference

Question: And the “endurance performance to exhaustion” value (doxorubicin-induced mice)?
Answer: enhanced

Question: What about the “prolonged S-T interval” value ([3]; 90 mg/kg/day, one week after treatment, electrocardiogram) of the same substance?
Answer: improved

Question: What about the “ejection fractions and fractional shortening” value ([3]; 30 and 90 mg/kg, vs doxorubicin alone) of the same substance?
Answer: significantly greater

Question: What about the “EF (Ejection fraction)” value ([3]; Dox + Med10 (10 mg/kg/day)) of the same substance?
Answer: 58.44 ± 2.55%

Question: What about the “FS (Fractional shortening)” value ([3]; Dox + Med10 (10 mg/kg/day)) of the same substance?
Answer: 30.32 ± 1.56%

Question: And the “IVS; d” value ([3]; Dox + Med10 (10 mg/kg/day))?
Answer: 0.85 ± 0.03 mm

Question: And the “IVS; s” value ([3]; Dox + Med10 (10 mg/kg/day))?
Answer: 1.20 ± 0.03 mm

Question: What about the “LVID; d” value ([3]; Dox + Med10 (10 mg/kg/day)) of the same substance?
Answer: 3.70 ± 0.34

Question: What about the “LVID; s” value ([3]; Dox + Med10 (10 mg/kg/day)) of the same substance?
Answer: 2.58 ± 0.27

Question: And the “LVPW; d” value ([3]; Dox + Med10 (10 mg/kg/day))?
Answer: 0.69 ± 0.10

Question: What about the “LVPW; s” value ([3]; Dox + Med10 (10 mg/kg/day)) of the same substance?
Answer: 1.00 ± 0.07

Question: What about the “EF (Ejection fraction)” value ([3]; Dox + Med30 (30 mg/kg/day)) of the same substance?
Answer: 75.07 ± 2.29%

Question: And the “FS (Fractional shortening)” value ([3]; Dox + Med30 (30 mg/kg/day))?
Answer: 43.04 ± 2.03 %

Question: What about the “IVS; d” value ([3]; Dox + Med30 (30 mg/kg/day)) of the same substance?
Answer: 0.81 ± 0.04 mm

Question: What about the “IVS; s” value ([3]; Dox + Med30 (30 mg/kg/day)) of the same substance?
Answer: 1.19 ± 0.02 mm

Question: What about the “LVID; d” value ([3]; Dox + Med30 (30 mg/kg/day)) of the same substance?
Answer: 3.33 ± 0.07

Question: And the “LVID; s” value ([3]; Dox + Med30 (30 mg/kg/day))?
Answer: 1.89 ± 0.06

Question: And the “LVPW; d” value ([3]; Dox + Med30 (30 mg/kg/day))?
Answer: 0.74 ± 0.04

Question: What about the “LVPW; s” value ([3]; Dox + Med30 (30 mg/kg/day)) of the same substance?
Answer: 1.26 ± 0.07

Question: What about the “EF (Ejection fraction)” value ([3]; Dox + Med90 (90 mg/kg/day)) of the same substance?
Answer: 72.92 ± 2.72%

Question: And the “FS (Fractional shortening)” value ([3]; Dox + Med90 (90 mg/kg/day))?
Answer: 41.19 ± 2.07 %

Question: What about the “IVS; d” value ([3]; Dox + Med90 (90 mg/kg/day)) of the same substance?
Answer: 0.86 ± 0.05 mm

Question: What about the “IVS; s” value ([3]; Dox + Med90 (90 mg/kg/day)) of the same substance?
Answer: 1.29 ± 0.09 mm

Question: What about the “LVID; d” value ([3]; Dox + Med90 (90 mg/kg/day)) of the same substance?
Answer: 3.30 ± 0.11

Question: And the “LVID; s” value ([3]; Dox + Med90 (90 mg/kg/day))?
Answer: 1.94 ± 0.12

Question: What about the “LVPW; d” value ([3]; Dox + Med90 (90 mg/kg/day)) of the same substance?
Answer: 0.77 ± 0.06

Question: And the “LVPW; s” value ([3]; Dox + Med90 (90 mg/kg/day))?
Answer: 1.15 ± 0.08

Question: What about the “expression of EPO in kidney and heart” value ([3]; doxorubicin-induced mice) of the same substance?
Answer: recovered and increased

Question: What about the “cardiomyocytes atrophy or hypertrophy, cytoplasmic vacuolization, myofibrillar loss, myocardial fibrosis (histology)” value ([3]; middle-high dosed treatment) of the same substance?
Answer: significantly ameliorated

Question: And the “left ventricular posterior wall thickness (LVPWs)” value ([3]; middle-high doses)?
Answer: increased

Question: What about the “influence to renal function” value ([3]; mouse, in vivo) of the same substance?
Answer: no influence

Question: What about the “heart rate (beats per second)” value ([3]; three weeks after treatment) of the same substance?
Answer: recovered to normal
